# Reference: patent EP2426213A1, “Marker for sunitnib resistance formation” (Max-Planck-Gesellschaft zur Förderung der Wissenschaften …, priority 2010, dated 2012)
# Columns and labels:
# Assay type in all cases: cell-based, Human
# [1] = test system: CAKI1; assay: Propidium iodide (PI) apoptosis assay, LD50 after 72 h
# Protocol: (§1) Human kidney carcinoma and melanoma cell lines A498, A704, CAKI1, CAKI2, WM115, WM266-4 and C8161 were provided by M. Herlyn (Wistar Institute, Philadephia) and R. Gillies (Arizona Cancer Center, Phoenix) or purchased from the American Tissue Culture Collection. CAKI1, CAKI2 and C8161 cells were cultured in Dulbecco's modified Eagle's medium (DMEM; Gibco Life Technologies Inc.), supplemented with 10 % fetal calf serum (FCS), 2 mM glutamine, and 1 % nonessential amino acids. A498, A704 and WM115 cells were cultured in Minimum Essential Medium (MEM; Gibco Life Technologies Inc.) supplemented with 10 % FCS, 2 mM glutamine, and 1 % (v/v) nonessential amino acids. WM266-4 cells were cultured in RPMI medium (Gibco Life Technologies Inc.), supplemented with 10 % FCS and 2 mM glutamine.
# (§2) The cells were treated with Sunitinb concentrations between 2.5 µM and 20 µM for 72 h and apoptosis was determined according to Nicoletti's procedure (Riccardi and Nicoletti 2006). BD CellQuest Pro software (Becton Dickinson) for subG1 peak detection was used to determine the extent of the apoptotic cell formation. Statistical evaluation of the half maximal lethal dose-(LD50) values was assessed by using SigmaPlot (Systat Software, Inc., version 10).
# [2] = test system: A498; assay: as above
# Protocol: as §1, §2
# [3] = test system: C8161^NDes; assay: Apoptosis LD50 in Sorafenib desensitized cell line
# Protocol: as §2
# (§3) To determine the drug specificity of the selection process, we also established Sorafenib selected polyclonal cell populations using the same conditions.
# [4] = test system: WM115^NDes; assay: Apoptosis LD50 in Sorafenib desensitized cell line
# Protocol: as §2, §3
# [5] = test system: WM266-4^NDes; assay: Apoptosis LD50 in Sorafenib desensitized cell line
# Protocol: as §2, §3
# [6] = test system: A704^NDes; assay: Apoptosis LD50 in Sorafenib selected cell line
# Protocol: as §2, §3
# [7] = test system: WM266-4; assay: Propidium iodide (PI) apoptosis assay, LD50 after 72 h; settings: WM266-4 parental; Sunitinib 72 h; apoptosis (subG1)
# Protocol: as §1, §2
# [8] = test system: A704; assay: as above; settings: A704 parental, Sunitinib 2.5-20 µM, apoptosis (subG1)
# Protocol: as §1, §2
# [9] = test system: WM115; assay: as above; settings: WM115 parental; Sunitinib 72 h; apoptosis (subG1)
# Protocol: as §1, §2
# [10] = test system: C8161; assay: as above; settings: C8161 parental; Sunitinib 72 h; apoptosis (subG1)
# Protocol: as §1, §2
# [11] = test system: WM115^SDes; assay: Increased Sunitinib-induced apoptosis (AdA) after siRNA knock-down, PI assay; settings: RSK4 reduction by siRNA vs control siRNA, Sunitinib 72 h
# Protocol: (§4) The cells were seeded with equal numbers in 6-Well plates and transfected with 40 pmol siRNA (PRKX (AMBION, cat. no.: s224410, s224411, s11195), TTBK2 (AMBION, cat. no.: s44812, s44813, s44814), RSK4/RPS6KA6 (AMBION, cat. no.: s223751, s223752, s223753) and 5 µl lipofectamine RNAiMAX (Invitrogen) following the manufacturers' protocols. To determine the knock-down efficiency, semi-quantitative RT-PCR was performed (Primer list, see table 1). Table 1: Primer used for RT-PCR
# (§5) Apoptotic cell formation was monitored according to Nicoletti's procedure.
# [12] = test system: A498^SDes cells; assay: Boyden Chamber migration assay after siRNA knock-down and Sunitinib treatment; settings: Sunitinib 12 h
# Protocol: as §4, §5
# (§6) Then, cells were seeded onto a membrane with 8 µm pores of a modified Boyden chamber (Schubert and Weiss) containing 500 µL serum-free medium. 10 % FCS served as chemo-attractant.
# [13] = test system: parental A498 cells; assay: as above; settings: Sunitinib 12 h
# Protocol: as §4, §5, §6
# [14] = test system: A498^SDes; assay: Increased Sunitinib-induced apoptosis (AdA) after siRNA knock-down, PI assay; settings: Sunitinib 72 h
# Protocol: as §4, §5
# (§7) To analyze the increased Sunitinib-induced apoptosis (AdA) upon gene-expression reduction compared to the control siRNA, apoptosis was determined using PI-Assays after 72 h. Gene knock-downs ranged between 50% and 90%, as estimated by scanning densitometry (Fig. 4A). […] Like for PRKX and TTBK2, the […] in gene-expression strongly correlated with the degree of desensitization.
# [15] = test system: C8161^NDes; assay: as above; settings: C8161NDes, Sunitinib 72 h
# Protocol: as §4, §5, §7
# [16] = test system: WM115^NDes; assay: as above; settings: Sunitinib 72 h
# Protocol: as §4, §5, §7
# [17] = test system: C8161^Sdes; assay: as above; settings: Sunitinib 72 h
# Protocol: as §4, §5, §7
# [18] = test system: WM266-4; assay: as above; settings: Sunitinib 72 h
# Protocol: as §4, §5, §7
# [19] = test system: WM115; assay: as above; settings: Sunitinib 72 h
# Protocol: as §4, §5, §7
# [20] = test system: C8161; assay: as above; settings: Sunitinib 72 h
# Protocol: as §4, §5, §7
# [21] = test system: WM266-4^SDes; assay: as above; settings: Sunitinib 72 h
# Protocol: as §4, §5, §7
# [22] = test system: A498; assay: as above; settings: Sunitinib 72 h
# Protocol: as §4, §5, §7
# [23] = test system: WM266-4^NDes; assay: as above; settings: Sunitinib 72 h
# Protocol: as §4, §5, §7
# [24] = test system: A498^SDes; assay: Apoptosis LD50 in Sunitinib desensitized cell line; settings: A498^SDes compared to parental cell line; 72 h
# Protocol: as §2
# [25] = test system: WM115^SDes; assay: Apoptosis LD50 in Sunitinib desensitized cell line; settings: WM115^SDes compared to parental cell line; 72 h
# Protocol: as §2
# [26] = test system: A704^SDes; assay: Apoptosis LD50 in Sunitinib desensitized cell line; settings: A704^SDes compared to parental cell line; 72 h
# Protocol: as §2
# [27] = test system: C8161^Sdes; assay: Apoptosis LD50 in Sunitinib desensitized cell line; settings: C8161^Sdes compared to parental cell line; 72 h
# Protocol: as §2
# [28] = test system: WM266-4^SDes; assay: Apoptosis LD50 in Sunitinib desensitized cell line; settings: WM266-4^SDes compared to parental cell line; 72 h
# Protocol: as §2
# [29] = PRKX reduction by siRNA vs control siRNA
# [30] = RSK4 reduction by siRNA vs control siRNA
# [31] = TTBK2 reduction by siRNA vs control siRNA
smiles,measurement,setting,value
CNC(=O)c1cc(Oc2ccc(NC(=O)Nc3ccc(Cl)c(C(F)(F)F)c3)cc2)ccn1 [Sorafenib],Sorafenib sensitivity (apoptosis),[1]; parental CAKI1,insensitivity
same,Sorafenib sensitivity (apoptosis),[2]; parental A498,insensitivity
same,decreased sensitivities against Sorafenib compared to the parental cell lines,"[3]; C8161^NDes, Sorafenib LD50",249%
same,decreased sensitivities against Sorafenib compared to the parental cell lines,"[4]; WM115^NDes, Sorafenib LD50",197%
same,decreased sensitivities against Sorafenib compared to the parental cell lines,"[5]; WM266-4^NDes, Sorafenib LD50",130%
CCN(CC)CCNC(=O)c1c(C)[nH]c(/C=C2\C(=O)Nc3ccc(F)cc32)c1C [Sunitinib],Sunitinib LD50-value,[6]; A704^NDes (Sorafenib selected),9.0 ± 2.5 µM
same,increased Sunitinib LD50-value,[6]; A704^NDes in comparison to the parental cell line,419%
same,LD50-values,"[1]; CAKI1 parental, Sunitinib 72 h, apoptosis (subG1)",16.6 ± 1.5 µM
same,LD50-values,[7],6.4 ± 1.3 µM
same,LD50-values,[8],2.2 ± 0.4 µM
same,LD50-values,[9],3.6 ± 0.9 µM
same,LD50-values,[10],15.5 ± 0.7 µM
same,LD50-values,"[2]; A498 parental, Sunitinib 72 h, apoptosis (subG1)",12.4 ± 0.4 µM
same,increased Sunitinib-induced apoptosis (AdA),[11],14.1 ± 3.2%
same,decrease in Sunitinib sensitivity,[3]; C8161^Ndes compared to parental,77%
same,increase of the Sunitinib LD50-values,[4]; WM115^Ndes compared to parental,249%
same,increase of the Sunitinib LD50-values,[5]; WM266-4^Ndes compared to parental,168%
same,increased Sunitinib inhibitory effect (migration),[12]; PRKX reduction by siRNA,76.4 ± 4.1%
same,increased Sunitinib anti-migratory effect,[12]; RSK4 reduction by siRNA,8.6 ± 3.1%
same,inhibition of migration compared to the scrambled siRNA control,[13]; PRKX reduction by siRNA,64.4 ± 11.1%
same,increase in Sunitinib inhibition of migration,[13]; RSK4 reduction by siRNA,27.3 ± 2.7%
same,increase in Sunitinib inhibition of migration,[13]; TTBK2 reduction by siRNA,37.1 ± 1.0%
same,increased Sunitinib-induced apoptosis (AdA),"[14]; PRKX reduction by siRNA vs control siRNA, A498SDes",14.7 ± 4.4%
same,increased Sunitinib-induced apoptosis (AdA),"[14]; RSK4 reduction by siRNA vs control siRNA, A498^SDes",14.7 ± 4.4%
same,increased Sunitinib-induced apoptosis (AdA),"[14]; TTBK2 reduction by siRNA vs control siRNA, A498^SDes",13.6 ± 0.4%
same,increased Sunitinib-induced apoptosis (AdA),[15]; [29],18.1 ± 8.8%
same,increased Sunitinib-induced apoptosis (AdA),[15]; [30],6.0 ± 2.1%
same,increased Sunitinib-induced apoptosis (AdA),[15]; [31],-2.2 ± 6.8%
same,increased Sunitinib-induced apoptosis (AdA),"[16]; PRKX reduction by siRNA vs control siRNA, WM115NDes",3.9 ± 4.8%
same,increased Sunitinib-induced apoptosis (AdA),"[16]; RSK4 reduction by siRNA vs control siRNA, WM115^NDes",5.6 ± 3.8%
same,increased Sunitinib-induced apoptosis (AdA),"[16]; TTBK2 reduction by siRNA vs control siRNA, WM115NDes",11.7 ± 4.4%
same,increased Sunitinib-induced apoptosis (AdA),"[17]; PRKX reduction by siRNA vs control siRNA, C8161SDes",35.8 ± 9.9%
same,increased Sunitinib-induced apoptosis (AdA),"[17]; RSK4 reduction by siRNA vs control siRNA, C8161SDes",11.9 ± 4.8%
same,increased Sunitinib-induced apoptosis (AdA),"[17]; TTBK2 reduction by siRNA vs control siRNA, C8161^SDes",20.3 ± 8.1%
same,increased Sunitinib-induced apoptosis (AdA),[18]; [29],22.4 ± 6.7%
same,increased Sunitinib-induced apoptosis (AdA),[18]; [30],7.1 ± 2.0%
same,increased Sunitinib-induced apoptosis (AdA),[18]; [31],5.1 ± 2.0%
same,increased Sunitinib-induced apoptosis (AdA),[19]; [29],3.2 ± 0.4%
same,increased Sunitinib-induced apoptosis (AdA),[19]; [30],4.8 ± 2.3%
same,increased Sunitinib-induced apoptosis (AdA),[19]; [31],4.8 ± 1.5%
same,increased Sunitinib-induced apoptosis (AdA),[20]; [29],19.4 ± 2.4%
same,increased Sunitinib-induced apoptosis (AdA),[20]; [30],12.5 ± 3.6%
same,increased Sunitinib-induced apoptosis (AdA),[20]; [31],7.3 ± 4.8%
same,increased Sunitinib-induced apoptosis (AdA),"[21]; PRKX reduction by siRNA vs control siRNA, WM266-4SDes",34.1 ± 4.9%
same,increased Sunitinib-induced apoptosis (AdA),"[21]; RSK4 reduction by siRNA vs control siRNA, WM266-4^SDes",20.2 ± 5.7%
same,increased Sunitinib-induced apoptosis (AdA),"[21]; TTBK2 reduction by siRNA vs control siRNA, WM266-4SDes",16.8 ± 7.7%
same,increased Sunitinib-induced apoptosis (AdA),[22]; [29],6.5 ± 3.2%
same,increased Sunitinib-induced apoptosis (AdA),[22]; [30],6.5 ± 3.2%
same,increased Sunitinib-induced apoptosis (AdA),[22]; [31],7.1 ± 3.1%
same,increased Sunitinib-induced apoptosis (AdA),[23]; [29],23.0 ± 5.4%
same,increased Sunitinib-induced apoptosis (AdA),[23]; [30],5.3 ± 5.2%
same,increased Sunitinib-induced apoptosis (AdA),[23]; [31],12.7 ± 2.5%
same,increase of the LD50-values,[24],122%
same,increase of the LD50-values,[25],301%
same,increase of the LD50-values,[26],344%
same,increase of the LD50-values,[27],112%
same,increase of the LD50-values,[28],174%
